Assay results reported in PubChem BioAssay AID489035 (Sanford-Burnham Center for Chemical Genomics, 2010).
Activity calls are given as the source filed them. No rule for the calls is given here.

system: Jurkat NF-kB reporter, TCR-induced, luciferase luminescence; experiment: inhibitors of TCR-driven NF-kB activation, dose response, Jurkat cells, luminescence (AID 489035)

| SMILES | IC50 |
| --- | --- |
| Cc1ccc(O)c(N=Nc2nccs2)c1 | 1.79 µM |
| COc1ccc(C2=NOC(C(=O)NCc3ccc(F)cc3)C2)cc1OC (stereo unspecified) | > 80 µM (inactive) |
| CC[C@]1(O)CC2CN(CCc3c([nH]c4ccccc34)[C@@](C(=O)OC)(c3cc4c(cc3OC)N(C=O)[C@H]3[C@@](O)(C(=O)OC)[C@H](OC(C)=O)[C@]5(CC)C=CCN6CC[C@]43[C@@H]65)C2)C1 (stereo partly specified) | > 80 µM (inactive) |
| COc1ccccc1N1CCN(C(=O)C2c3ccccc3Oc3ccccc32)CC1 | 57.2 µM (inactive) |
| O=C(Sc1cccc2cccnc12)c1ccc(F)cc1 | 0.99 µM |
| O=C1CC(c2cccc(Br)c2)c2cc3c(cc2N1)CCC3 (stereo unspecified) | 63.9 µM (inactive) |
| COc1ccc(-[n+]2c(-c3ccccc3)cc(-c3ccc(C)cc3)cc2-c2ccccc2)cc1 | 4.95 µM |
| Cc1cccc(N2CCN(C(=O)c3c(-c4ccccc4Cl)noc3C)CC2)c1C | 78.6 µM (inactive) |
| CSc1nccc(-c2nn(-c3ccc(C)cc3)ccc2=O)n1 | 33.3 µM (inactive) |
| CCCCCC(=O)N[C@@H](c1ccccc1)[C@@H](O)C(=O)O[C@H]1C[C@@]2(O)[C@@H](OC(=O)c3ccccc3)C3[C@](C)(C(=O)[C@H](OC(C)=O)C(=C1C)C2(C)C)[C@@H](O)C[C@H]1OC[C@@]31OC(C)=O (stereo partly specified) | 32.3 µM (inactive) |
| Cc1c(C(=O)OCc2ccccc2)[nH]c2c1C(=O)CC(c1ccco1)C2 (stereo unspecified) | > 80 µM (inactive) |
| O=C(Nc1ccc(F)cc1)c1ccc(CN2CCc3ccccc3C2)cc1 | > 80 µM (inactive) |
| CCN1C=CC(=C2C(=O)c3ccccc3C2=O)C=C1 | 1.03 µM |
| COc1cc(C2C(C#N)=C(N)Oc3cc(N(C)C)ccc32)cc2c1OCO2 (stereo unspecified) | > 80 µM (inactive) |
| CCOC(=O)c1ccc2nc(Nc3nc4ccc(F)cc4s3)sc2c1 | 75.4 µM (inactive) |
| COc1ccc(NS(=O)(=O)c2ccc(-c3cnc(C4CC4)o3)cc2)cc1OC | > 80 µM (inactive) |
| O=C(N/N=C\c1c(O)ccc2ccccc12)c1cncc(Br)c1 | 4.01 µM |
| COc1ccccc1NC(=O)Cn1nnc(C(=O)NCc2cccs2)c1N | > 80 µM (inactive) |

| SMILES | IC50 |
| --- | --- |
| COc1cc(/C=C2/SC(=Nc3ccc(O)cc3)NC2=O)ccc1O | 10.6 µM |
| Cc1nn(C)c(C)c1CN(Cc1nc(CCC(C)C)no1)C(C)C | > 80 µM (inactive) |
| O=C(N/N=C/c1c(O)ccc2ccccc12)c1cccc(C(F)(F)F)c1 | 10.4 µM |
| C/C(=N\NC(=O)c1cc(C)nc2ccccc12)c1ccccn1 | > 80 µM (inactive) |
| COc1ccc(C(=O)N2CCN(c3ccc([N+](=O)[O-])c(NCCc4ccc(OC)c(OC)c4)c3)CC2)cc1 | > 80 µM (inactive) |
| CC(C)Nc1ccc(C(CC(N)=O)NC(=O)Cc2ccc(Br)cc2)cc1[N+](=O)[O-] (stereo unspecified) | 1.71 µM |
| COCCCNC(=O)C(=O)Nc1ccc2c(c1)N(S(=O)(=O)c1cccs1)CCC2 | 5.46 µM |
| Cc1csc2ncnc(NC3CCN(Cc4ccccc4)CC3)c12 | > 80 µM (inactive) |
| CS(=O)(=O)c1ccc(Sc2nc3ccccc3s2)c([N+](=O)[O-])c1 | 0.89 µM |
| COc1ccc(Cl)cc1NC(=O)CN(C)CC(=O)Nc1ccccc1N1CCOCC1 | 41.5 µM (inactive) |
| CCCCCCCOc1ccc(OC(=O)c2cccnc2)cc1 | > 80 µM (inactive) |
| COc1cccc(/C=N/NC(=O)c2[nH]nc3c2CCc2ccccc2-3)c1O | 59.5 µM (inactive) |
| CC[n+]1cc(C)ccc1/C=C/c1ccc(N(C)C)cc1 | > 80 µM (inactive) |
| CC(=O)O[C@H]1C(=O)[C@@]2(C)C([C@H](OC(=O)c3ccccc3)[C@]3(O)C[C@H](OC(=O)[C@H](O)[C@@H](NC(=O)c4ccccc4)c4ccccc4)C(C)=C1C3(C)C)[C@]1(OC(C)=O)CO[C@@H]1C[C@H]2O (stereo partly specified) | < 0.16 µM |
| COC(=O)c1[nH]c2c(c1C)C(=O)CC(c1cccs1)C2 (stereo unspecified) | > 80 µM (inactive) |
| Cc1oc2c(c1C(=O)NCc1cccnc1)C(=O)c1ccccc1C2=O | 1.1 µM |
| CC1(C)Cc2c(sc(NC(=O)COc3cccc4ccccc34)c2C#N)C(C)(C)N1 | 13.5 µM |
| Cc1cc(C)cc(NC(=O)c2cc(C)n(Cc3cccs3)c2C)c1 | 5.13 µM |
